Read-outs that look alike come from different tables or passages of the source.
How the values were obtained:
Human factor Xa = Human factor Xa (Homo sapiens, UniProt P00742)
TF-VIIa = target: T1, TF-VIIa (Homo sapiens, UniProt P08709); assay: TF-VIIa Assay; type: biochemical
T1 construct: 2nM recombinant human factor VIIa; purchased American Diagnostica, Greenwich CT; host or cells: soluble TF made in house in E. coli

[1] = read-out: IC50 or % Inhibition TF-VIIa (30 µM); cells without % sign: IC50
[2] = read-out: IC50 or % Inhibition TF-VIIa (30 µM); cells given as a plain number (IC50)
[3] = cells given as a plain number (IC50); read-out: IC50 or % Inhibition TF-VIIa (30 µM)

T1 sequence (P08709 213-466 limits assumed): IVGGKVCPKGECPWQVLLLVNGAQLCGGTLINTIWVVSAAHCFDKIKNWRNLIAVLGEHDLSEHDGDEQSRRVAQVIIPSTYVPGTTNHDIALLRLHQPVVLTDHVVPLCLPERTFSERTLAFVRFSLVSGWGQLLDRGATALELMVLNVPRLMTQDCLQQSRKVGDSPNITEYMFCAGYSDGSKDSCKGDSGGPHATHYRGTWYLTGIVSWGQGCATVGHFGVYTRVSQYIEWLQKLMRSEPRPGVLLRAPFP
T1 sequence (P08709 61-212 limits assumed): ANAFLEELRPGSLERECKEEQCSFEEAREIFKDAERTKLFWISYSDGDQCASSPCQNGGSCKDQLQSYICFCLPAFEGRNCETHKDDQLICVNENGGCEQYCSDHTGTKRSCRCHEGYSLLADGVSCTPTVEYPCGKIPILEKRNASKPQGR
T1 sequence (P13726 33-251 partner limits assumed): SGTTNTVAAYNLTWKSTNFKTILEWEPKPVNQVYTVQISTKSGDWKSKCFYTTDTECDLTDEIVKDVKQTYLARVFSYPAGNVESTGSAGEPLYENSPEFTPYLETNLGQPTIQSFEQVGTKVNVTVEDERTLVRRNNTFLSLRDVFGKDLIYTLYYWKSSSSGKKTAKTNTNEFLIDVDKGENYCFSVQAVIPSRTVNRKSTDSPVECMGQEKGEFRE
Sequence of Human factor Xa (P00742 235-488 limits assumed): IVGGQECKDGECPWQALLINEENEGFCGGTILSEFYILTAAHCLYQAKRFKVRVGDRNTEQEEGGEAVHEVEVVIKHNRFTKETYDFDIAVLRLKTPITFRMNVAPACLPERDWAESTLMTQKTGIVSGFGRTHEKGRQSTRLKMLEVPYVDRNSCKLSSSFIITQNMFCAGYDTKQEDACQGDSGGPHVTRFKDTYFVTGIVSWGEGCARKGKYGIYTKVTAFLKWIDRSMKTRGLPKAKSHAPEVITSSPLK
Sequence of Human factor Xa (P00742 41-179 limits assumed): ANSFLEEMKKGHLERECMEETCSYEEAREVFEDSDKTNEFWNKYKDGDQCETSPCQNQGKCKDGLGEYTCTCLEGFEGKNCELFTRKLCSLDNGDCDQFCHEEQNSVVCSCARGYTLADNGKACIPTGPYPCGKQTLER

Row | Structure (SMILES) | IC50 or % Inhibition Factor Xa (30 µM) (Human factor Xa) | IC50 (TF-VIIa; [2]) [µM] | further results
1 | CC(C)Nc1nc(Cl)c(-c2cccc([N+](=O)[O-])c2)n(CC(=O)NCc2ccc(C(N)=NO)cc2)c1=O [Example 61] | 0% |  | IC50 or % Inhibition TF-VIIa (30 µM) (TF-VIIa): 1%
2 | O=C(Cn1c(-c2ccc(-c3ccccc3)cc2)c(Cl)nc(NCCN2CCOCC2)c1=O)NCCc1ccncc1 [Example E-0055] |  |  | % Inhibition Factor Xa (100 µM) (Human factor Xa): 0%; % Inhibition TF-VIIa (100 µM) (TF-VIIa): 0%
3 | COC(=O)c1cccc(-c2c(Cl)nc(NC(C)C)c(=O)n2CC(=O)NCc2ccc(C(=N)N)cc2)c1 [Example 64] | 19% |  | IC50 (TF-VIIa; [3]): 0.78 µM
4 | N=C(N)c1ccc(CNC(=O)Cn2c(-c3ccc(-c4ccccc4)cc3)c(Cl)nc(NCCc3ccccc3)c2=O)cc1 [1471-71] | 0% |  | IC50 or % Inhibition TF-VIIa (30 µM) (TF-VIIa): 6%
5 | COc1ccc(-c2c(Cl)nc(NCCc3ccncc3)c(=O)n2CC(=O)NCCc2ccncc2)cc1 [Example E-0038] |  |  | % Inhibition Factor Xa (100 µM) (Human factor Xa): 0%; % Inhibition TF-VIIa (100 µM) (TF-VIIa): 0%
6 | N=C(N)c1ccc(CNC(=O)C(Cc2ccccc2)n2c(-c3ccccc3)c(Cl)nc(NCCc3ccccc3)c2=O)cc1 (stereo not drawn) [1517-14] | 0% |  | IC50 or % Inhibition TF-VIIa (30 µM) (TF-VIIa): 30%
7 | O=C(Cn1c(-c2ccc(-c3ccccc3)cc2)c(Cl)nc(NCc2ccccc2)c1=O)NCCc1cccnc1 [Example E-0110] |  |  | % Inhibition Factor Xa (100 µM) (Human factor Xa): 3%; % Inhibition TF-VIIa (100 µM) (TF-VIIa): 0%
8 | N=C(N)c1ccc(CNC(=O)Cn2c(-c3ccccc3)c(Cl)nc(NC3Cc4ccccc4C3)c2=O)cc1 [1507-08] | 1% |  | IC50 or % Inhibition TF-VIIa (30 µM) (TF-VIIa): 7%
9 | N=C(N)c1ccc(CNC(=O)Cn2c(-c3cccc(N)c3)c(Cl)nc(NC3CC3)c2=O)c(F)c1 [1543-33] | 14% |  | IC50 (TF-VIIa; [1]): 0.03 µM
10 | N=C(N)c1ccc(CNC(=O)Cn2c(-c3c(Cl)cccc3Cl)c(Cl)nc(NCCc3cccc(Cl)c3)c2=O)cc1 [1517-24] | 0% | 1.8 | 
11 | O=C(Cn1c(Cc2ccccc2)c(Cl)nc(NCCc2cccnc2)c1=O)NCCc1ccncc1 [Example E-0061] |  |  | % Inhibition Factor Xa (100 µM) (Human factor Xa): 0%; % Inhibition TF-VIIa (100 µM) (TF-VIIa): 0%
12 | CCCCNc1nc(Cl)c(-c2cccc(N)c2)n(CC(=O)NCc2ccc(C(=N)N)cc2F)c1=O [1543-36] | 15% |  | IC50 (TF-VIIa; [1]): 0.08 µM
13 | COc1ccc(-c2c(Cl)nc(NCc3ccncc3)c(=O)n2CC(=O)NCc2ccc(C(=N)N)cc2)cc1 [1471-35] | 22% |  | IC50 or % Inhibition TF-VIIa (30 µM) (TF-VIIa): 37%
14 | Cc1c(Cl)nc(NCc2ccccc2)c(=O)n1CC(=O)NCCc1ccncc1 [Example E-0001] |  |  | % Inhibition Factor Xa (100 µM) (Human factor Xa): 1%; % Inhibition TF-VIIa (100 µM) (TF-VIIa): 0%
15 | N=C(N)c1ccc(CNC(=O)Cn2c(-c3c(Cl)cccc3Cl)c(Cl)nc(NCc3ccccc3)c2=O)cc1 [1517-06] | 0% | 2.5 | 
16 | N=C(N)c1ccc(CNC(=O)Cn2c(Cc3ccccc3)c(Cl)nc(NCCc3ccccc3)c2=O)cc1 [Example 20] | 6%@30 |  | IC50 or % Inhibition TF-VIIa (30 µM) (TF-VIIa): 41%@30
17 | N=C(N)c1ccc(CNC(=O)Cn2c(-c3c(Cl)cccc3Cl)c(Cl)nc(NC3CCC3)c2=O)cc1 [1517-12] | 0% | 0.8 | 

Row | Structure (SMILES) | IC50 or % Inhibition Factor Xa (30 µM) (Human factor Xa) | IC50 (TF-VIIa; [2]) [µM] | further results
18 | O=C(Cn1c(CCc2ccccc2)c(Cl)nc(NCCc2ccccc2)c1=O)NCCc1ccncc1 [Example E-0066] |  |  | % Inhibition Factor Xa (100 µM) (Human factor Xa): 0%; % Inhibition TF-VIIa (100 µM) (TF-VIIa): 0%
19 | CSCC(C(=O)NCc1ccc(C(=N)N)cc1)n1c(-c2ccccc2)c(Cl)nc(NCCc2ccccc2)c1=O (stereo not drawn) [1517-16] | 0% | 3.4 | 
20 | CCc1c(Cl)nc(NCCc2ccncc2)c(=O)n1CC(=O)NCc1ccc(C(=N)N)cc1 [1471-61] | 0% | 5 | 
21 | C[C@H](C(=O)NCc1ccc(C(=N)N)cc1)n1c(-c2ccccc2)c(Cl)nc(NC2CCC2)c1=O [1517-11] | 0% | 3 | 
22 | CCCNc1nc(Cl)c(-c2cccc(N)c2)n(CC(=O)NCc2ccc(C(=N)N)cc2F)c1=O [1543-35] | 8% |  | IC50 (TF-VIIa; [1]): 0.07 µM
23 | Cc1c(Cl)nc(NCCN2CCOCC2)c(=O)n1CC(=O)NCCc1ccncc1 [Example E-0007] |  |  | % Inhibition Factor Xa (100 µM) (Human factor Xa): 0%; % Inhibition TF-VIIa (100 µM) (TF-VIIa): 0%
24 | N=C(N)c1ccc(CNC(=O)Cn2c(-c3ccc(-c4ccccc4)cc3)c(Cl)nc(NCCc3cccnc3)c2=O)cc1 [1471-72] | 22% |  | IC50 or % Inhibition TF-VIIa (30 µM) (TF-VIIa): 15%
25 | CCc1c(Cl)nc(NCCc2cccnc2)c(=O)n1CC(=O)NCc1ccc(C(=N)N)cc1 [1471-64] | 2% | 3.02 | 
26 | Cc1c(Cl)nc(NCCc2cccnc2)c(=O)n1CC(=O)NCc1ccc(C(=N)N)cc1 [1471-8] | 27% | 3.86 | 
27 | O=C(Cn1c(Cc2ccccc2)c(Cl)nc(NCCc2ccccc2)c1=O)NCCc1ccncc1 [Example E-0058] |  |  | % Inhibition Factor Xa (100 µM) (Human factor Xa): 0%; % Inhibition TF-VIIa (100 µM) (TF-VIIa): 0%
28 | COc1ccc(-c2c(Cl)nc(NCCc3cccc(Cl)c3)c(=O)n2CC(=O)NCCc2cccnc2)cc1 [Example E-0104] |  |  | % Inhibition Factor Xa (100 µM) (Human factor Xa): 5%; % Inhibition TF-VIIa (100 µM) (TF-VIIa): 3%
29 | N=C(N)c1ccc(CNC(=O)Cn2c(-c3ccccc3)c(Cl)nc(NCc3ccc(Cl)cc3)c2=O)cc1 [1507-46] | 8% |  | IC50 (TF-VIIa; [3]): 4.3 µM
30 | CCc1c(Cl)nc(NCc2ccncc2)c(=O)n1CC(=O)NCc1ccc(C(=N)N)cc1 [1471-59] | 0% | 7.52 | 
31 | O=C(Cn1c(-c2ccccc2)c(Cl)nc(NCCN2CCOCC2)c1=O)NCCc1ccncc1 [Example E-0015] |  |  | % Inhibition Factor Xa (100 µM) (Human factor Xa): 0%; % Inhibition TF-VIIa (100 µM) (TF-VIIa): 0%
32 | C[C@H](C(=O)NCc1ccc(C(=N)N)cc1)n1c(-c2ccccc2)c(Cl)nc(NCc2ccccc2)c1=O [1517-05] | 0% | 4.6 | 
33 | N=C(N)NCC#CCNC(=O)Cn1c(-c2ccccc2)cnc(NCCc2ccccc2)c1=O [Example 36] | 0% |  | IC50 or % Inhibition TF-VIIa (30 µM) (TF-VIIa): 5%

Second part, led by results:

Row | IC50 or % Inhibition Factor Xa (30 µM) (Human factor Xa) | IC50 (TF-VIIa; [2]) [µM] | Structure (SMILES) | further results
34 | 19% |  | N=C(N)c1ccc(CNC(=O)Cn2c(-c3cccc(N)c3)c(Cl)nc(NCCCn3ccnc3)c2=O)cc1 [1543-07] | IC50 (TF-VIIa; [1]): 0.21 µM
35 | 21% | 2.18 | N=C(N)c1ccc(CNC(=O)Cn2c(-c3cccc(Cl)c3)c(Cl)nc(NCCc3ccncc3)c2=O)cc1 [1471-29] | 
36 | 12% | 8.69 | Cc1c(Cl)nc(NCCc2ccncc2)c(=O)n1CC(=O)NCc1ccc(C(=N)N)cc1 [1471-5] | 
37 | 0% | 0.4 | N=C(N)c1ccc(CNC(=O)Cn2c(-c3ccsc3)c(Cl)nc(NC3CCC3)c2=O)cc1 [1517-07] | 
38 | 0% | 29.4 | Cc1c(Cl)nc(NCCN2CCOCC2)c(=O)n1CC(=O)NCc1ccc(C(=N)N)cc1 [1471-4] | 
39 | 4% |  | Cc1c(Cl)nc(NCCc2ccccc2)c(=O)n1CC(=O)NCc1ccc(C(=N)N)cc1 [1471-7] | IC50 (TF-VIIa; [3]): 4.28 µM
40 | 0% |  | CCCNc1nc(Cl)c(-c2ccccc2)n(CC(=O)NCc2ccc(C(=N)N)cc2)c1=O [1517-33] | IC50 (TF-VIIa; [3]): 0.4 µM
41 | 0% | 3 | C[Si](C)(C)CNc1nc(Cl)c(-c2ccccc2)n(CC(=O)NCc2ccc(C(=N)N)cc2)c1=O [1517-36] | 
42 | 15% | 10.5 | N=C(N)c1ccc(CNC(=O)Cn2c(-c3ccc4c(c3)OCO4)c(Cl)nc(NCCc3ccc(Cl)cc3)c2=O)cc1 [1471-42] | 
43 | 18% | 25.3 | N=C(N)c1ccc(CNC(=O)Cn2c(-c3ccc4c(c3)OCO4)c(Cl)nc(NCc3ccncc3)c2=O)cc1 [1471-43] | 
44 | 0% | 12.4 | CCc1c(Cl)nc(NCCc2ccc(Cl)cc2)c(=O)n1CC(=O)NCc1ccc(C(=N)N)cc1 [1471-58] | 
45 | 21% | 13 | N=C(N)c1ccc(CNC(=O)Cn2c(-c3ccc4c(c3)OCO4)c(Cl)nc(NCCc3cccc(Cl)c3)c2=O)cc1 [1471-46] | 
46 | 9% |  | N=C(N)c1ccc(CNC(=O)Cn2c(-c3ccccc3)c(Cl)nc(NCc3cc(F)ccc3F)c2=O)cc1 [1512-36] | IC50 (TF-VIIa; [3]): 3.8 µM
47 | 11% |  | CC(CNc1nc(Cl)c(-c2cccc(N)c2)n(CC(=O)NCc2ccc(C(=N)N)cc2)c1=O)N(C)C (stereo not drawn) [1543-19] | IC50 (TF-VIIa; [1]): 0.22 µM
48 | 28% | 14.6 | N=C(N)c1ccc(CNC(=O)Cn2c(-c3ccc(Cl)cc3)c(Cl)nc(NCCc3cccc(Cl)c3)c2=O)cc1 [1471-22] | 
49 | 12% |  | N=C(N)c1ccc(CNC(=O)Cn2c(-c3cccc(N)c3)c(Cl)nc(NCCCO)c2=O)cc1 [1543-13] | IC50 (TF-VIIa; cells without % sign: IC50; read-out: IC50 or % Inhibition TF-VIIa (30 µM)): 0.09 µM
50 | 25% | 1.19 | N=C(N)c1ccc(CNC(=O)Cn2c(-c3cccc(Cl)c3)c(Cl)nc(NCCc3cccnc3)c2=O)cc1 [1471-32] | 
51 | 24% | 17.5 | COc1ccc(-c2c(Cl)nc(NCCc3ccc(Cl)cc3)c(=O)n2CC(=O)NCc2ccc(C(=N)N)cc2)cc1 [1471-34] | 
52 | 13% |  | N=C(N)c1ccc(CNC(=O)Cn2c(-c3ccc4c(c3)OCO4)c(Cl)nc(NCCN3CCOCC3)c2=O)cc1 [1471-44] | IC50 or % Inhibition TF-VIIa (30 µM) (TF-VIIa): 34%
53 | 10% | 4.7 | N=C(N)c1ccc(CNC(=O)Cn2c(-c3ccccc3)c(Cl)nc(NCCCn3ccnc3)c2=O)cc1 [1507-05] | 
54 | 16% | 27.4 | N=C(N)c1ccc(CNC(=O)Cn2c(-c3ccccc3)c(Cl)nc(NCCC3=CCCCC3)c2=O)cc1 [1507-17] | 

From patent EP1202975B1, “SUBSTITUTED POLYCYCLIC ARYL AND HETEROARYL PYRAZINONES USEFUL FOR SELECTIVE INHIBITION OF THE COAGULATION CASCADE” (Pharmacia Corporation, priority 1999, dated 2000)
